Data from ChEMBL document CHEMBL5370549, “Optimization and evaluation of pyridinyl vinyl sulfones as Nrf2 activator for the antioxidant and anti-inflammatory effects” (Eur J Med Chem, 2023).
Counter-ions that a name gives are not always drawn.

Legend:
[1] = target: T1, Nuclear factor erythroid 2-related factor 2 (Homo sapiens, UniProt Q16236); test: Activation of Nrf2 in human U2OS cells co-expressing Keap1 assessed as induction of Nrf2 nuclear translocation incubated for 6 hrs by PathHunter chemiluminescence based analysis; assay type: cell-based
T1 sequence (Q16236 whole entry): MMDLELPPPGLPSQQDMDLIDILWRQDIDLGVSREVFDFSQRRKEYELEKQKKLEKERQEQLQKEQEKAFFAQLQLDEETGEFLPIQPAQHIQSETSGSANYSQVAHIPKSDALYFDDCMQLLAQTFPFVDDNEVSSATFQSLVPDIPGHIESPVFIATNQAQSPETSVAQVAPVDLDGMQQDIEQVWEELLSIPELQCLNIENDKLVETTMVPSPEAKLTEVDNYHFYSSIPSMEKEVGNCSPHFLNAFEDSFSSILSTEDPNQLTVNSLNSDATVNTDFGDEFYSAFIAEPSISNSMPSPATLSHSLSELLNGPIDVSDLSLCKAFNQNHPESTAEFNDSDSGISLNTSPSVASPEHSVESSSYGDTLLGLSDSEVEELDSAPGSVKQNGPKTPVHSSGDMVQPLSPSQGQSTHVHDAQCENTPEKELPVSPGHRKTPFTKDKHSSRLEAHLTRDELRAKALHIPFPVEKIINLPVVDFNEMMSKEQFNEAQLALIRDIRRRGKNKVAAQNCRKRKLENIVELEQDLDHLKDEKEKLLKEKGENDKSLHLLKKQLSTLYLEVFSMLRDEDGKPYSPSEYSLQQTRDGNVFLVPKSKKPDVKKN

CYP1A2 = target: T2, CYP1A2 (Homo sapiens, UniProt P05177); test: Inhibition of CYP1A2 (unknown origin) assessed as enzyme activity at 10 uM relative to control; assay type: ADME; set-up: scale not given: the % may be the effect or the level left; details: read-out: Activity
T2 sequence (P05177 whole entry): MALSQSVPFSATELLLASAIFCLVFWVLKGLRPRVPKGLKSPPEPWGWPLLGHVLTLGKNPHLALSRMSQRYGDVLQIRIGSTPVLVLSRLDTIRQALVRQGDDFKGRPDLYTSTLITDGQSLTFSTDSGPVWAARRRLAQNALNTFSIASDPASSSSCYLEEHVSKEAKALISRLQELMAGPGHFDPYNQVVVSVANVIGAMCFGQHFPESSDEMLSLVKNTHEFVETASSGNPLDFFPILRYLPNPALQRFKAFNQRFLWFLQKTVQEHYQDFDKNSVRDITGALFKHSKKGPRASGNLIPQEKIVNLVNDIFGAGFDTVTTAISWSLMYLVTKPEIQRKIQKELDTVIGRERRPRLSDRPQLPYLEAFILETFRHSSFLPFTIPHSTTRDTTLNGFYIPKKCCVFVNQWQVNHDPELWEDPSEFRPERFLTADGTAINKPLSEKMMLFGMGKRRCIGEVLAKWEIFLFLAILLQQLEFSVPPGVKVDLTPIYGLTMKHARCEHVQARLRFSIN

CYP3A4 = CYP3A4 (Homo sapiens, UniProt P08684); test: Inhibition of CYP3A4 (unknown origin) assessed as enzyme activity at 10 uM relative to control; assay type: ADME; set-up: scale not given: the % may be the effect or the level left; details: read-out: Activity
CYP2C9 = CYP2C9 (Homo sapiens, UniProt P11712); test: Inhibition of CYP2C9 (unknown origin) assessed as enzyme activity at 10 uM relative to control; assay type: ADME; set-up: scale not given: the % may be the effect or the level left; details: read-out: Activity
CYP2C19 = CYP2C19 (Homo sapiens, UniProt P33261); test: Inhibition of CYP2C19 (unknown origin) assessed as enzyme activity at 10 uM relative to control; assay type: ADME; set-up: scale not given: the % may be the effect or the level left; details: read-out: Activity
CYP2D6 = CYP2D6 (Homo sapiens, UniProt P10635); test: Inhibition of CYP2D6 (unknown origin) assessed as enzyme activity at 10 uM relative to control; assay type: ADME; set-up: scale not given: the % may be the effect or the level left; details: read-out: Activity
[2] = Metabolic stability of the compound in human liver microsomes assessed as parent compound remaining measured after 30 mins; assay type: ADME, Microsome; details: read-out: Stability
[3] = Metabolic stability of the compound in mouse liver microsomes assessed as parent compound remaining measured after 30 mins; assay type: ADME, Microsome; details: read-out: Stability
[4] = Metabolic stability of the compound in human plasma assessed as parent compound remaining measured after 30 mins; assay type: ADME, cell-free; details: read-out: Stability
[5] = Metabolic stability of the compound in rat plasma assessed as parent compound remaining measured after 30 mins; assay type: ADME, cell-free; details: read-out: Stability

Chain of CYP2C19 (P33261 whole entry): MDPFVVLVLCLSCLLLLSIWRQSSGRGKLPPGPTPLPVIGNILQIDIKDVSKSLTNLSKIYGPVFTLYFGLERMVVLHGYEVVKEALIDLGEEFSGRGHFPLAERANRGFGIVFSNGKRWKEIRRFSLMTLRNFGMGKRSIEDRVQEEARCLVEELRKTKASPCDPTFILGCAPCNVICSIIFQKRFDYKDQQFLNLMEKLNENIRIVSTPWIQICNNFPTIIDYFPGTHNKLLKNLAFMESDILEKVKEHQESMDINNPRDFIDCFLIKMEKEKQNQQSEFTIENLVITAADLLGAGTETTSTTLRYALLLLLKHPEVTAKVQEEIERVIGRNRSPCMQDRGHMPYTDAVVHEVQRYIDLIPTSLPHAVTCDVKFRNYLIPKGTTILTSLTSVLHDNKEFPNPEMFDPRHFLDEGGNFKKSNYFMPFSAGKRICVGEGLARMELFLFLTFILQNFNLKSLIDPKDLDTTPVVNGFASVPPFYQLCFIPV
Chain of CYP2D6 (P10635 whole entry): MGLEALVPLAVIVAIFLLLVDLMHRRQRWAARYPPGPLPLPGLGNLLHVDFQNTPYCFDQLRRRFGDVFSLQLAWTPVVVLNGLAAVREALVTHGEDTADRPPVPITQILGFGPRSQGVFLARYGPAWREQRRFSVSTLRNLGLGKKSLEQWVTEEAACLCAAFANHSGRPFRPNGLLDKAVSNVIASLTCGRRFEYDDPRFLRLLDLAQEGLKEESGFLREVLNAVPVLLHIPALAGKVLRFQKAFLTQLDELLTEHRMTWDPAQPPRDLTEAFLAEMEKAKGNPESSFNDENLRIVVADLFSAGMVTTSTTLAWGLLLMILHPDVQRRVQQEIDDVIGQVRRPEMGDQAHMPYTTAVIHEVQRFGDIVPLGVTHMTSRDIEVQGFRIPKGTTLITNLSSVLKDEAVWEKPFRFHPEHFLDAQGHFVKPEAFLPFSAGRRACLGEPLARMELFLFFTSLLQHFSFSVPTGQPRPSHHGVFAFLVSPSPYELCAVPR
Chain of CYP2C9 (P11712 whole entry): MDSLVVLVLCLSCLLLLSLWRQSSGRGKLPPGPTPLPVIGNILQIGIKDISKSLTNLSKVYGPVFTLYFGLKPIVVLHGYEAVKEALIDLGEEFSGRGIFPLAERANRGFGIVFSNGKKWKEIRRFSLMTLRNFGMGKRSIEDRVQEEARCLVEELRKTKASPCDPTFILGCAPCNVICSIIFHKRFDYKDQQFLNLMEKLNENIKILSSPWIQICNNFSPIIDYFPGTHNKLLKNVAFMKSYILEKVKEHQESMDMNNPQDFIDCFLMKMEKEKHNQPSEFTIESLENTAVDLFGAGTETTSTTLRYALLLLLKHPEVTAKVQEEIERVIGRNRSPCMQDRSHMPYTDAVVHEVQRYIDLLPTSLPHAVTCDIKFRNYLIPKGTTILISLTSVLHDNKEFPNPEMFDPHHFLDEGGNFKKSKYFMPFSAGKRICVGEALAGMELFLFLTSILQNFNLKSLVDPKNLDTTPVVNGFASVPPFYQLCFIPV
Chain of CYP3A4 (P08684 whole entry): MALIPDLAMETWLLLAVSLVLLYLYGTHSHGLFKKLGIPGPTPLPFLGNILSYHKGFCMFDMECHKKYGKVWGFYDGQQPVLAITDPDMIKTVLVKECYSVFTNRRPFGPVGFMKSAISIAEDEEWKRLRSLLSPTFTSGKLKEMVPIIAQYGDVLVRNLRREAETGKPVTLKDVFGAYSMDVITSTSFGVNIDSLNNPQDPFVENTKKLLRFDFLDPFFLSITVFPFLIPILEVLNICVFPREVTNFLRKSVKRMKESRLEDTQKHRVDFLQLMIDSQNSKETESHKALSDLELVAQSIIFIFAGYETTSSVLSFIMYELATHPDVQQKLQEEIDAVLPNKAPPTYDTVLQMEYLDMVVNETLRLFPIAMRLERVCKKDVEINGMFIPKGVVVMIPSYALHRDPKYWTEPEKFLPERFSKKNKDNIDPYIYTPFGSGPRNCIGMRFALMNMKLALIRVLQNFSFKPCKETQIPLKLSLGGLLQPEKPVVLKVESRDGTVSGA

| SMILES | EC50 [1] | activity at 10 µM (CYP1A2) | activity at 10 µM (CYP3A4) | activity at 10 µM (CYP2C9) | activity at 10 µM (CYP2C19) | activity at 10 µM (CYP2D6) | remaining at 0.5 h [2] | remaining at 0.5 h [3] | remaining at 0.5 h [4] | remaining at 0.5 h [5] |
| --- | --- | --- | --- | --- | --- | --- | --- | --- | --- | --- |
| COc1ccnc(S(=O)(=O)/C=C/c2ccccc2Cl)c1 | 58 nM | 28.5% | 49.8% | 73.6% | 11.1% | 97.5% | 22.8% | 2.2% | > 99% | 96.5% |
| COc1ncccc1S(=O)(=O)/C=C/c1ncccc1C(F)(F)F | 214 nM | 57.3% | 51.7% | > 99% | 17.6% | > 99% | 59.4% | 29.9% | 97.4% | 88.6% |
| COc1ncccc1S(=O)(=O)/C=C/c1ccccc1Cl | 189 nM | 10.7% | 48.5% | > 99% | 7.1% | 99.5% | 75.2% | 48.1% | > 99% | 98.9% |
| COc1cccc(S(=O)(=O)/C=C/c2ncccc2Cl)n1 | 93 nM | 23.1% | 36.8% | > 99% | 12.5% | 96% | 49.4% | 9.6% | > 99% | 83% |
| COc1ccnc(S(=O)(=O)/C=C/c2ccccc2C(F)(F)F)c1 | 115 nM | 33.8% | 39.8% | 38.2% | 14.9% | 96.3% | 58.5% | 1.6% | 99% | 95.3% |
| COc1ccnc(S(=O)(=O)/C=C/c2ncccc2C(F)(F)F)c1 | 174 nM | 72.2% | 83.2% | 31% | 29.8% | > 99% | 63.2% | 19% | 90.9% | 82.4% |
| COc1cccnc1S(=O)(=O)/C=C/c1ccccc1Cl | 76 nM | 71.8% | 87.1% | 59.7% | 60.7% | 93.4% | 83.1% | 34.4% | 92.4% | > 99% |
| COc1cccnc1C(=O)/C=C/c1ccccc1C(F)(F)F | – | 3.7% | 27.4% | > 99% | 8.2% | 91.3% | 1% | 1.4% | 96.5% | 94.3% |
| COc1ncccc1S(=O)(=O)/C=C/c1ccccc1C(F)(F)F | 749 nM | 12.4% | 51.7% | > 99% | 16.2% | 94.4% | 75.2% | 48.1% | 91.3% | 89.3% |
| COc1ccc([S+]([O-])/C=C/c2ccccc2C(F)(F)F)nc1 (stereo unspecified) | – | 48.8% | 78% | > 99% | 2.5% | 94% | 28% | 1% | > 99% | 89% |
| COc1ccncc1S(=O)(=O)/C=C/c1ncccc1Cl | 51 nM | 79.5% | 15.7% | > 99% | 42.9% | 88.7% | 91.4% | 77.1% | – | – |
| COC(=O)/C=C/C(=O)O [MONOMETHYL FUMARATE] | > 10000 nM | – | – | – | – | – | – | – | – | – |
| COc1ccnc([S+]([O-])/C=C/c2ccccc2C(F)(F)F)c1 (stereo unspecified) | – | 34.3% | 45.1% | 81.9% | 6.4% | 85.7% | 40.6% | 1.4% | 96% | 92.2% |
| COc1ccncc1S(=O)(=O)/C=C/c1ccccc1C(F)(F)F | 248 nM | 12.1% | 12% | > 99% | 23.5% | 85.1% | 82.9% | 71.9% | – | – |
| COc1cccnc1[S+]([O-])/C=C/c1ccccc1C(F)(F)F (stereo unspecified) | – | 32.8% | 36.9% | 56.3% | 32.9% | 95.9% | 46.3% | 5% | > 99% | > 99% |

The next lines start with the values.

| EC50 [1] | activity at 10 µM (CYP1A2) | activity at 10 µM (CYP3A4) | activity at 10 µM (CYP2C9) | activity at 10 µM (CYP2C19) | activity at 10 µM (CYP2D6) | remaining at 0.5 h [2] | remaining at 0.5 h [3] | remaining at 0.5 h [4] | remaining at 0.5 h [5] | SMILES |
| --- | --- | --- | --- | --- | --- | --- | --- | --- | --- | --- |
| 33 nM | 74.2% | 72.6% | > 99% | 29% | > 99% | 48.1% | 44% | 96.7% | 91.5% | COc1ccc(S(=O)(=O)/C=C/c2ncccc2Cl)nc1 |
| 400 nM | 89.6% | > 99% | > 99% | 24.3% | > 99% | 88.4% | 64.5% | 93.1% | 59% | COc1ccnc(S(=O)(=O)/C=C/c2ccnc(Cl)c2)c1 |
| 75 nM | 31% | 53% | > 99% | 15% | > 99% | 77.6% | 59.2% | 98.5% | 91.3% | COc1ncccc1S(=O)(=O)/C=C/c1ncccc1Cl |
| 5110 nM | – | – | – | – | – | – | – | – | – | COC(=O)/C=C/C(=O)OC [DIMETHYL FUMARATE] |
| – | 4.9% | 38.3% | 78.3% | 5.5% | 72.6% | 6.3% | 1.1% | 82.4% | 89.8% | COc1cccc([S+]([O-])/C=C/c2ccccc2C(F)(F)F)n1 (stereo unspecified) |
| 130 nM | 46.1% | 58.8% | > 99% | 5.4% | 100% | 9.5% | 5.6% | > 99% | > 99% | COc1ccc(S(=O)(=O)/C=C/c2ccccc2Cl)nc1 |
| 1310 nM | 33.3% | 95.1% | > 99% | 10.7% | 96.3% | 70.3% | 67.6% | 91.1% | 84.8% | COc1ccnc(S(=O)(=O)/C=C/c2ccc(Cl)cn2)c1 |
| 1870 nM | 82.1% | > 99% | 66.5% | > 99% | 91.9% | > 99% | > 99% | – | – | COc1cccnc1/C=C/S(=O)(=O)c1ncccc1OC |
